The test system of the series is mice with xerophthalmia (0.2% benzalkonium chloride). Put plainly: Benzalkonium chloride xerophthalmia mouse model: sodium fluorescein staining and phenol red cotton thread tear test. The format is in vivo, mouse (C57BL/6). As to conditions: for phenol red cotton thread infiltration length (tear secretion) after 14 d of treatment / sodium fluorescein staining eye score after 14 d of treatment: eye drops 5 μL per eye twice daily, 400 μM CsA (10RAP: 400 μM rapamycin), day 14; for phenol red cotton thread infiltration length (tear secretion), day 0 (before treatment) / sodium fluorescein staining eye score, day 0 (before treatment): xerophthalmia mice, baseline of the treatment group. Here is the method:
The ocular xerophthalmia model was established in 6-8 weeks old mice (C57BL/6, Suzhou Xishan Biotechnology Co., Ltd.) with 0.2% benzalkonium chloride. 5 μL of 0.2% benzalkonium chloride was dripped into each eye of the mice, once in the morning and once in the evening every day, for two consecutive weeks. After successful modeling, the hospital-prepared CsA eye drops (400 µM CsA, referred to as hospital-prepared CsA eye drops or CsA eye drops, provided by the Eye, Ear, Nose and Throat Hospital Affiliated to Fudan University School of Medicine, Shanghai) and CsA-ASONFKBIZ-m (400 µM CsA) were used for eye drops treatment, 5 μL per eye, once in the morning and once in the evening. Sodium fluorescein staining and phenol red cotton thread tear secretion test were conducted on days 0, 7, and 14 of treatment to evaluate the therapeutic effect.
(§1) The ocular xerophthalmia model was established in 6-8 weeks old mice (C57BL/6, Suzhou Xishan Biotechnology Co., Ltd.) with 0.2% benzalkonium chloride. 5 μL of 0.2% benzalkonium chloride was dripped into each eye of the mice, once in the morning and once in the evening every day, for two consecutive weeks. After successful modeling, the hospital-prepared CsA eye drops (400 μM CsA, provided by the Eye, Ear, Nose and Throat Hospital Affiliated to Fudan University School of Medicine, Shanghai) and 2CsA-ASONFKBIZ-m (400 µM CsA) were used for eye drops treatment, 5 μL per eye, once in the morning and once in the evening. Sodium fluorescein staining and phenol red cotton thread tear secretion test were conducted on days 0, 7, and 14 of treatment to evaluate the therapeutic effect.
as §1, with “µM” for “μM”, “provided” for “provided by”, “3CsA-ASONFKBIZ-m nanomicelles (133 µM ASO concentration, 400” for “2CsA-ASONFKBIZ-m (400”
as §1, with “CsA3-ASONFKBIZ-m nanomicelles” for “2CsA-ASONFKBIZ-m”, “0” for “0, 7,”
The ocular xerophthalmia model was established in 6-8 weeks old mice (C57BL/6, Suzhou Xishan Biotechnology Co., Ltd.) using 0.2% benzalkonium chloride. 5 μL of 0.2% benzalkonium chloride was dripped into each eye of the mouse, once in the morning and once in the evening every day for two weeks. After successful modeling, the hospital-prepared CsA eye drops (400 µM CsA, provided by the Eye, Ear, Nose and Throat Hospital Affiliated to Fudan University School of Medicine, Shanghai) and CsA-siRNANFKBIZ-m (400 µM CsA), 2CsA-siRNANFKBIZ-m nanomicelles (400 µM CsA), 3CsA-siRNANFKBIZ-m nanomicelles (400 µM CsA) were used for eye drops treatment, 5 μL per eye, once in the morning and once in the evening. […]

In the oligonucleotide strings, read from the 5' end, every base follows the letter of its sugar. An asterisk marks phosphorothioate; unmarked linkages are phosphodiester. Other units and linkages are bracketed, terminal groups are in braces. A string of capitals states the bases alone. d = 2'-deoxy (DNA); r = 2'-OH (RNA)

Turning to “3CsA-ASONFKBIZ-m: three CsA molecules coupled to 3DBCO ASO targeting mouse NFKBIZ (SEQ ID 6), self-assembled (AATACTGGTACATTGACGCCNTNTT; three CsA via DBCO click; modified_base 21 OTHER; n is t base modified with DBCO moiety; modified_base 23 OTHER)”, the “phenol red cotton thread infiltration length (tear secretion) after 14 d of treatment” value is “about 4 mm”; the “sodium fluorescein staining eye score after 14 d of treatment” value is reported as “about 4 points”; the “phenol red cotton thread infiltration length (tear secretion), day 0 (before treatment)” value is 1.3 mm; the “sodium fluorescein staining eye score, day 0 (before treatment)” value is on record as 10 points.
Turning to “3CsA-siRNANFKBIZ-m: three CsA coupled to sense strand of siRNA targeting mouse NFKBIZ (SEQ ID NO: 19/20) (sense GCGUCAAUGUACCAGUAUUUUNUNUU; antisense AAUACUGGUACAUUGACGCCU; three CsA on sense strand; modified_base 22 OTHER; n is t base modified with DBCO moiety; modified_base 24 OTHER)”, the “phenol red cotton thread infiltration length (tear secretion) after 14 d of treatment” value is “about 2.5 mm”; the “sodium fluorescein staining eye score after 14 d of treatment” value is recorded as “about 2 points”; the “phenol red cotton thread infiltration length (tear secretion), day 0 (before treatment)” value is given as 1.5 mm; the “sodium fluorescein staining eye score, day 0 (before treatment)” value was 6 points.
For “2CsA-siRNANFKBIZ-m: two CsA coupled to sense strand of siRNA targeting mouse NFKBIZ (SEQ ID NO: 17/18) (sense GCGUCAAUGUACCAGUAUUUUNUU; antisense AAUACUGGUACAUUGACGCCU; two CsA on sense strand; modified_base 22 OTHER; n is t base modified with DBCO moiety)”, in that order: “about 2.5 mm”, “about 2 points”, 1.5 mm and 6 points.
For “CsA-siRNANFKBIZ-m: one CsA coupled to sense strand of siRNA targeting mouse NFKBIZ (SEQ ID NO: 15/16) (sense rGrCrGrUrCrArArUrGrUrArCrCrArGrUrArUrUdTdT; antisense rArArUrArCrUrGrGrUrArCrArUrUrGrArCrGrCdCdT; cyclosporin A clicked onto the sense 3' DBCO group, further chemistry not fully specified)”, in that order: “about 2.5 mm”, “about 3 points”, 2 mm and 6 points.
For “CsA-ASONFKBIZ-m: single cyclosporin A (CsA-N3) click-coupled to 3′-DBCO ASO targeting mouse NFKBIZ gene (SEQ ID NO: 2) (AATACTGGTACATTGACGCC; 3'-DBCO ASO click-conjugated to one cyclosporin A, sugar and linkages not given here, further chemistry not given here)”, in that order: “about 3.2 mm”, “about 3 points”, 1.8 mm and 5.5 points.
For “2CsA-ASONFKBIZ-m: two CsA molecules coupled to 2DBCO ASO targeting mouse NFKBIZ (SEQ ID 4), self-assembled (AATACTGGTACATTGACGCCNTT; two CsA via DBCO click; modified_base 21 OTHER; n is t base modified with DBCO moiety)”, the “phenol red cotton thread infiltration length (tear secretion) after 14 d of treatment” value was “about 3.5 mm”; the “sodium fluorescein staining eye score after 14 d of treatment” value is “about 3.5 points”; the “phenol red cotton thread infiltration length (tear secretion), day 0 (before treatment)” value was determined as 1.5 mm; the “sodium fluorescein staining eye score, day 0 (before treatment)” value was found to be 6 points.

(Values after US20250367302A1, “SMALL MOLECULE DRUG-OLIGONUCLEOTIDE CONJUGATE AND USE THEREOF” (SHANGHAI JIAO TONG UNIVERSITY, priority 2022, published 2025).)
